Assay results from patent US20260137807A1, “COMPOSITIONS AND METHODS FOR DELIVERING A MACROMOLECULE TO A CELL” (AstraZeneca AB, priority 2022, published 2026).

Key:
Type in all cases: cell-based
[1] = system: HeLa mCherry-Gal9 cells; assay: mCherry-GAL9 recruitment assay; settings: for quantitation of Gal9 recruitment over time / window in concentration between induction of endosomal rupture and cytotoxicity: HeLa; for quantitation of Gal9 recruitment over time: FIG. 8; for relocalisation of Gal9 from cytosolic to punctate: 10-point dose titration, 2 hours, FIG. 3; for window in concentration between induction of endosomal rupture and cytotoxicity: FIG. 5
Source text: (§1) All compounds were subjected to a mCherry-GAL9 recruitment assay. Under normal conditions, mCherry-GAL9 is homogenously dispersed in the cytosol. When an endosomal leakage event is detected, mCherry-GAL9 translocates to the damaged endosome (Du Rietz et al. (2020) Nat. Commun. 11:1809) The resulting localization pattern of discrete puncta can be visualized and quantitated.
(§2) HeLa and Huh7 cell lines stably expressing mCherry-GAL9 were generated as described by (bioRxiv) (Munson, M. et al. (2021) Communications Biology, 4(211): 1-14) and seeded into 384-well CellCarrier Ultra plates (PerkinElmer: 6007558) at 3000 or 3500 cells/well respectively, 16 h before experimental usage.
(§3) Dose-response curves of select compounds were generated using an Echo 655T acoustic dispenser (Labcyte) to dispense the indicated compounds into source plates (Greiner: 781280) containing growth media. At experimental start points, media containing appropriate compounds and doses was transferred to plates using a liquid handling robot (Agilent Bravo).
(§4) At assay endpoints, cells were washed 2× PBS at RT and fixed in 4% PFA (VWR: 9713.1000) for 15 mins/RT. Cells were washed a further 3× PBS before the addition of PBS+1 μg/ml Hoechst 33342 (ThermoFisher Scientific: H21492) for a minimum of 1 h before imaging.
(§5) Plates were imaged using a spinning-disk confocal microscope (Yokogawa: CV7000) with a 20× objective (NA 0.75). Images were processed utilizing Columbus image-analysis software (PerkinElmer: v2.9.0) to identify and quantify cells and mCherry-GAL9 structures. The resulting data were processed and normalized in Spotfire (Tibco: v10.3) and plotted in Prism (Graphpad: v8.0.1). Image panels were assembled using the FigureJ plugin for FIJI. (Mutterer and Zinck (2013) J. Microsc. 252(1):89-91).
(§6) Cells were subjected to a 10-point concentration dilution (0-15 μM) for 2 hours and then fixed and imaged (FIG. 3 and FIG. 4). Images were analyzed and curves were generated from both mCherry-GAL9 puncta quantitation and cell survival as determined by nuclear morphology (FIG. 5). The GAL9 recruitment response support the functional splice-switching data with SSOs, confirming the mCherry-GAL9 assay as a powerful tool for screening endosomolytic compounds and supporting the hypothesis that AZ2467 (Compound 6) and AZ4800 (Compound 2) promote SSO activity by inducing endosomal rupture. The GAL9 assay was again conducted, this time in live cells for 4 hours with select compounds for screening. Compounds were screened at 5 μM (FIG. 6-8) or 0.3125-10 μM (FIG. 35-38). FIG. 39 and FIG. 47 provide results for select compounds at various doses 0.3125-10 μM.

[2] = system: Huh7 mCherry-Gal9 cells; assay: mCherry-GAL9 recruitment assay; settings: for quantitation of Gal9 recruitment over time: Huh7, FIG. 7; for relocalisation of Gal9 from cytosolic to punctate: 10-point dose titration, 2 hours, FIG. 4; for window in concentration between induction of endosomal rupture and cytotoxicity: Huh7, FIG. 5
Source text: as §1, §2, §3, §4, §5, §6

[3] = system: mCherry-GAL9 cells; assay: mCherry-GAL9 assay in live cells for 4 hours, screening; settings: 5 μM (FIG. 6-8)
Procedure: as §6

[4] = system: HeLa Luc705 cells; assay: Splice switching activity assay (Luc705 luciferase reporter), Example 4A
Source text: HeLa Luc705 and Huh7 Luc705 cells were used to screen and characterize the SMC generated in Example 2 for their ability to increase levels of an SSO-induced splice variant by co-treatment of the cells with the SSO and SMC. The Luc705 reporter construct was used for quantitation of luciferase protein produced as a result of functional SSO delivery. (Kang et al. (1998) Biochemistry, 37(18):6235-6239; Rocha et al. (2016) Four Novel Splice-Switch Reporter Cell Lines: Distinct Impact of Oligonucleotide Chemistry and Delivery Vector on Biological Activity. Nucleic Acid Ther. 26(6):381). Briefly, a plasmid carrying the luciferase coding sequence interrupted by an insertion of intron 2 from β-globin pre-mRNA carrying a cryptic splice site was stably transfected into cells. Unless the aberrant slice site was masked by an antisense oligonucleotide, the pre-mRNA of luciferase was improperly processed.
HeLa Luc705 and Huh7 Luc705 cells were seeded in 96-well plates at 10,000 cells per well in growth media containing 1 μM Luc705-SSO and incubated to allow adherence and oligo internalization. After 24 hours, 10 μl of SMC diluted in Growth Media (DMEM+10% FBS) was added into each well. After 2 hours, media was removed from the wells and replaced with fresh growth media for 4 hours to allow for translation of the variant proteins. The media was then removed, and cells were lysed with 0.1% Triton-PBS.
To detect luciferase activity, 30 μL of cell lysate was transferred to white-walled 96-well plates. Luciferase intensity in each well was measured using a GloMax® 96 Microplate Luminometer machine (Promega) following auto-injection of 25 μL Luciferin substrate (Firefly Luciferase Assay System: Promega) per well. Photon measurements were acquired for 10 seconds, starting 2 seconds after injection.
To determine whether AZ4800 (Compound 2, FIG. 1B) and SSO must be present in the cell media simultaneously for Compound 2 to produce its synergistic effects, the treatment plan was modified from the UNC2383 treatment plan detailed by Wang et al. (2017) ACS Chem. Biol. 12(8):1999-2007 to include a 24 hour pre-treatment with SSO, followed by the addition of Compound 2 for two hours, followed by the removal of SSO and Compound 2, and finally a 4-hour protein translation period (FIG. 10).

[5] = system: HeLa_Luc705 cells; assay: Splice switching activity assay, 24 hr SMC treatment, Examples 4B/4D
Procedure: (§7) HeLa_Luc705 cells were seeded in 96-well plates at 10,000 cells per well in growth media with 2 μM Luc705-SSO or 1 μM Luc705-SSO. The various SMCs were diluted directly into prepared growth media. After 24 hr to allow adherence and SSO internalization, 10 μl of diluted SMC was added into each well at indicated concentrations. For a positive control, SSOs were complexed with Lipofectamine 2000 for 30 min at RT and cells treated with a final concentration of 200 nM. ON concentrations above 200 nM would require LF2000 to be used in excess of the cells' toxicity threshold. After 24 hr treatment, cells were lysed with 0.1% TritonX-100 (Sigma Aldrich, cat no. X100) in 1× PBS (Gibco, cat no. 10010023).
(§8) For the detection of luciferase activity, 30 μL of cell lysate was transferred to white-walled plates. The luciferase intensity in each well was immediately measured via luminometer following auto-injection of 25 μL Luciferin substrate as per the Promega Firefly Luciferase Assay System. The timing parameters of photon measurements were optimized for this procedure.
as §7, with “The” for “HeLa_Luc705 cells were seeded in 96-well plates at 10,000 cells per well in growth media with 2 μM Luc705-SSO or 1 μM Luc705-SSO. The”

[6] = system: N2A_Luc705 cells; assay: Splice switching activity assay, 24 hr SMC treatment, Examples 4C/4D; settings: compounds at 5 μM, 1 μM Luc 705 SSO, FIG. 25B
Procedure: as §7, with “U2OS_Luc705 and N2A_Luc705” for “HeLa_Luc705”, “with” for “with 2 μM Luc705-SSO or”
as §8
as §7, with “The” for “HeLa_Luc705 cells were seeded in 96-well plates at 10,000 cells per well in growth media with 2 μM Luc705-SSO or 1 μM Luc705-SSO. The”

[7] = system: U2OS_Luc705 cells; assay: as above; settings: compounds at 5 μM, 1 μM Luc 705 SSO, FIG. 25A
Procedure: as §7, with “U2OS_Luc705 and N2A_Luc705” for “HeLa_Luc705”, “with” for “with 2 μM Luc705-SSO or”
as §8
as §7, with “The” for “HeLa_Luc705 cells were seeded in 96-well plates at 10,000 cells per well in growth media with 2 μM Luc705-SSO or 1 μM Luc705-SSO. The”

## COc1ccc2c(-c3nc(Nc4cn(C5CCNCC5)nc4OC)ncc3Cl)c[nH]c2c1 [Compound 5]
[1]
  quantitation of Gal9 recruitment over time: time-dependent endosomal rupture
[2]
  quantitation of Gal9 recruitment over time: time-dependent endosomal rupture
[3]
  GAL9 recruitment, reason for selection for further characterization: efficacy at shorter-term timepoints

## CCOc1nn(C2CCNCC2)cc1Nc1ncc(Cl)c(-c2c[nH]c3ccccc23)n1 [Compound 6]
[4]; 5 μM compound, 1 μM SSO or 100 nM SSO, FIG. 2B
  increase in functional SSO activity: increase in activity
[4]; up to 6 hours at 10 μM, FIG. 11B
  increase in SSO activity: 200 fold
[1]
  relocalisation of Gal9 from cytosolic to punctate: dose-dependent manner
  window in concentration between induction of endosomal rupture and cytotoxicity: narrow window
  quantitation of Gal9 recruitment over time: time-dependent endosomal rupture
[2]
  relocalisation of Gal9 from cytosolic to punctate: dose-dependent manner
  window in concentration between induction of endosomal rupture and cytotoxicity: narrow window
  quantitation of Gal9 recruitment over time: time-dependent endosomal rupture
[3]
  GAL9 recruitment, reason for selection for further characterization: efficacy at shorter-term timepoints

## CCOc1nn(C2CCNCC2)cc1Nc1ncc(C(F)(F)F)c(-c2c[nH]c3ccccc23)n1 [Compound 7]
[5]; 2 μM Luc 705 SSO, FIG. 26
  increase in SSO activity: induced an increase in SSO activity
[5]; 2 μM SSO, FIG. 23A
  increase in SSO activity: increase in SSO activity

## COc1nn(C2CCN(C)CC2)cc1Nc1ncc(F)c(-n2ccc3c(C#N)cccc32)n1 [Compound 8]
[5]; 2 μM Luc 705 SSO, FIG. 24
  increase in SSO activity: increase in SSO activity
[5]; 2 μM Luc 705 SSO, FIG. 26
  increase in SSO activity: induced an increase in SSO activity
[6]
  increase in SSO activity relative to oligo only: induced an increase in SSO activity relative to oligo only
[7]
  increase in SSO activity relative to oligo only: induced an increase in SSO activity relative to oligo only
[1]; doses 1.25-5 μM, 1, 2, 16 hours, FIG. 34
  GAL9 response, rank among exemplified compounds: second most potent
[2]; FIG. 40
  dose from which GAL9+ remodelling is induced: ≥ 2.5 µM
[2]; doses 1.25-5 μM, 1, 2, 16 hours, FIG. 33
  GAL9 response, rank among exemplified compounds: second most potent

## COc1nn(C2CCNCC2)cc1Nc1ncc(C#N)c(-n2ccc3c(C(F)(F)F)cccc32)n1 [Compound 20]
[7]
  increase in SSO activity relative to oligo only: induced an increase in SSO activity relative to oligo only

## CCOc1nn(C2CCNCC2)cc1Nc1ncc(F)c(-n2ccc3c(C#N)cccc32)n1 [Compound 21]
[5]; 2 μM Luc 705 SSO, FIG. 24
  increase in SSO activity: increase in SSO activity
[5]; 2 μM Luc 705 SSO, FIG. 26
  increase in SSO activity: induced an increase in SSO activity
[6]
  increase in SSO activity relative to oligo only: induced an increase in SSO activity relative to oligo only
[7]
  increase in SSO activity relative to oligo only: induced an increase in SSO activity relative to oligo only

## COc1nn(C2CCNCC2)cc1Nc1ncc(F)c(-n2ccc3ccc(C#N)cc32)n1 [Compound 22]
[6]
  increase in SSO activity relative to oligo only: induced an increase in SSO activity relative to oligo only
[7]
  increase in SSO activity relative to oligo only: induced an increase in SSO activity relative to oligo only

## COc1nn(C2CCNCC2)cc1Nc1ncc(F)c(-c2c[nH]c3cccc(C)c23)n1 [Compound 25]
[7]
  increase in SSO activity relative to oligo only: induced an increase in SSO activity relative to oligo only

## O=C(Nc1nc2ccccc2n1CCN1CCCC1)c1cc2cc(Cl)ccc2o1 [UNC2383, reference compound]
[1]
  relocalisation of Gal9 from cytosolic to punctate: dose-dependent manner
  window in concentration between induction of endosomal rupture and cytotoxicity: narrow window
[2]
  relocalisation of Gal9 from cytosolic to punctate: dose-dependent manner
  window in concentration between induction of endosomal rupture and cytotoxicity: narrow window
  quantitation of Gal9 recruitment over time: time-dependent endosomal rupture
